Measured values published in US10988523B2, “Modified lipidated Relaxin B chain peptides and their therapeutic use” (Sanofi, priority 2018, dated 2021).
*1 amine or outer side, *2 acyl side, *3 side chain or, on linkers, in order; H or OH if unused. Where a SMILES comes first, the peptide text is derived from it. Side-chain parts run from the residue outwards. [ ]: non-standard residue; d: D form. The star is where a group is joined. X5 = CCCCCCCCCCCCCCCC(=O)N[C@@H](CCC(=O)NCCCC[C@H](NC(=O)CC[C@H](NC(=O)CC[C@H](NC(=O)CC[C@H](NC(=O)CCC(=O)NCCCOCCOCCOCCCNC(=O)CCC(=O)NCCCOCCOCCOCCCN*)C(=O)O)C(=O)O)C(=O)O)C(N)=O)C(=O)O; γGlu = O=C(O)[C@H](CCC(=O)[*:2])N[*:1]; Stearoyl = CCCCCCCCCCCCCCCCCC(=O)*; Palmitoyl = CCCCCCCCCCCCCCCC(=O)*; αMeK = C[C@](N)(CCCCN)C(=O)O; Nle = CCCC[C@H](N)C(=O)O; AEEA = NCCOCCOCC(=O)O; Aib = CC(C)(N)C(=O)O

Legend:
[1] = target: T1, RXFP1 (Homo sapiens, UniProt Q9HBX9); experiment: OVCAR5 cAMP assay (HTRF), RXFP1 agonist activity; assay type: cell-based; conditions: for EC50: OVCAR5 cells, cAMP HTRF, read-out: EC50 (nM), OVCAR 5 cells (cAMP); for Emax: OVCAR-5, maximal cAMP relative to H2-relaxin maximum (100%), read-out: EMax, OVCAR 5 cells (cAMP)
T1 construct: OVCAR5 cells expressing endogenous RXFP1; endogenous in cells; host or cells: OVCAR5 cells
T1 sequence (Q9HBX9 1-757): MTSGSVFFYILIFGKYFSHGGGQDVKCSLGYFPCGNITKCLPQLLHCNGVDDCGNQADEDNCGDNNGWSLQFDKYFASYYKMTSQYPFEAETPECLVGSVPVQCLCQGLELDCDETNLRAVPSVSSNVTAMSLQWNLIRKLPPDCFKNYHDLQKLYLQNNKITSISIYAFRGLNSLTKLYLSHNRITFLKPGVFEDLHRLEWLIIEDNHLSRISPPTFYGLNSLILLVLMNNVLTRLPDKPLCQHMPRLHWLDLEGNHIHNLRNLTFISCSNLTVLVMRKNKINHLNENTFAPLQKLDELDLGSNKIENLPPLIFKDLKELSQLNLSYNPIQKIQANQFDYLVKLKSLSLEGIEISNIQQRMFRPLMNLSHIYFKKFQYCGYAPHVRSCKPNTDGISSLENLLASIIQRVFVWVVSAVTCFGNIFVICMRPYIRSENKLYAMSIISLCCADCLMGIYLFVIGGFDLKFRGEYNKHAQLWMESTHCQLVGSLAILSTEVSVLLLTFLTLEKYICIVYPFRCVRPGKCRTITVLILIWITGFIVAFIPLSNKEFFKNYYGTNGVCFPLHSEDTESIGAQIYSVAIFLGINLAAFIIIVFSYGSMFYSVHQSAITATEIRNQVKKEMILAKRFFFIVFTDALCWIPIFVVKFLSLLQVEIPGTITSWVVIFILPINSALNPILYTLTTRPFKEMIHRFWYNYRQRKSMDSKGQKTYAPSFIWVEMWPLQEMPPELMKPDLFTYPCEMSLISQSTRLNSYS
Procedure, shortened: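 cAMP accumulation readout: after 1 mM IBMX for 40 min, endogenous-RXFP1 OVCAR5 cells got rising peptide concentrations without FCS, 30 min, 37° C, then lysis with HTRF cAMP reagents. Nonlinear regression gave EC50; Emax expressed relative to H2-relaxin maximum, same occasion.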

[2] = Pharmacokinetic (PK) determination after i.v. or s.c. administration to rats; assay type: in vivo, Sprague Dawley rats; conditions: Sprague Dawley, Rat PK; for C0 / half-life: iv, 1 mg/kg i.v.; for C0: extrapolated plasma concentration at t=0, read-out: C0; for half-life / Cmax / Tmax / bioavailability: plasma; for half-life: read-out: T½ (converted); for Cmax / Tmax: sc, 3 mg/kg s.c.; for bioavailability: subcutaneous, 3 mg/kg s.c. vs 1 mg/kg i.v., dose-corrected AUC ratio
Procedure, shortened: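 Non-compartmental analysis of plasma LC/MS data (protein precipitation, BLQ taken as zero) gave T½, C0 (i.v.), Cmax/Tmax (s.c.) and F% from dose-corrected AUCs. Dosing: 3 mg/kg s.c. or 1 mg/kg i.v. in PBS to Sprague Dawley rats, purity- and salt-corrected.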

SMILES	EC50 [1] [nM]	Emax [1] [%]	C0 [2] [nM]	half-life [2] [h]	Cmax [2] [nM]	Tmax [2] [h]	bioavailability [2] [%]
CCCCCCCCCCCCCCCCCC(=O)N[C@@H](CCC(=O)N[C@@H](CCC(=O)N[C@@H](CCC(=O)NCCOCCOCC(=O)NCCOCCOCC(=O)NCCOCCOCC(=O)NCCCC[C@H](NC(=O)[C@H](CCCCNC(C)=O)NC(=O)[C@H](CCCCN)NC(=O)[C@H](CCCNC(=N)N)NC(=O)C(C)(C)NC(=O)[C@H](CO)NC(=O)[C@H](Cc1ccccc1)NC(=O)[C@@H](NC(=O)[C@H](CO)NC(=O)[C@H](CCCC)NC(=O)CNC(=O)[C@H](CCC(=O)O)NC(=O)C(C)(C)NC(=O)C(C)(C)NC(=O)[C@@H](NC(=O)[C@H](CCCCNC(C)=O)NC(=O)[C@H](C)NC(=O)[C@H](CCCNC(=N)N)NC(=O)[C@@H](NC(=O)[C@H](CCCCN)NC(=O)[C@H](CCC(=O)O)NC(=O)[C@H](CCCNC(=N)N)NC(=O)CNC(=O)[C@H](CCC(=O)O)NC(=O)[C@H](CC(C)C)NC(C)=O)C(C)C)[C@@H](C)CC)[C@@H](C)O)C(N)=O)C(=O)O)C(=O)O)C(=O)O [compound 112] (Ac-LEGREKVRAK(Ac)I[Aib][Aib]EG[Nle]STFS[Aib]RKK(Ac)K([AEEA-AEEA-AEEA-γGlu-γGlu-γGlu-Stearoyl])-NH2)	0.32	88	3500	3.3	2200	8	63
CCCCCCCCCCCCCCCC(=O)N[C@@H](CCC(=O)N[C@@H](CCC(=O)N[C@@H](CCC(=O)N[C@@H](CCC(=O)NCCCC[C@H](NC(=O)COCCOCCNC(=O)COCCOCCNC(=O)COCCOCCNC(=O)COCCOCCNC(=O)[C@H](CCCCNC(C)=O)NC(=O)[C@H](CCCCN)NC(=O)[C@H](CCCNC(=N)N)NC(=O)[C@](C)(CCCCN)NC(=O)[C@H](CO)NC(=O)[C@H](Cc1c[nH]c2ccccc12)NC(=O)[C@@H](NC(=O)[C@H](CO)NC(=O)[C@H](CCCC)NC(=O)CNC(=O)[C@H](CCC(=O)O)NC(=O)C(C)(C)NC(=O)C(C)(C)NC(=O)[C@@H](NC(=O)[C@H](CCCCNC(C)=O)NC(=O)[C@H](C)NC(=O)[C@H](CCCNC(=N)N)NC(=O)[C@@H](NC(=O)[C@H](CCCCN)NC(=O)[C@H](CCC(=O)O)NC(=O)[C@H](CCCNC(=N)N)NC(=O)CNC(=O)[C@H](CCC(=O)O)NC(=O)[C@H](CC(C)C)NC(C)=O)C(C)C)[C@@H](C)CC)[C@@H](C)O)C(N)=O)C(=O)O)C(=O)O)C(=O)O)C(=O)O [compound 131] (Ac-LEGREKVRAK(Ac)I[Aib][Aib]EG[Nle]STWS[αMeK]RKK(Ac)[AEEA][AEEA][AEEA][AEEA]K([γGlu-γGlu-γGlu-γGlu-Palmitoyl])-NH2)	0.26	92	2500	6.3	1390	8	82
CCCCCCCCCCCCCCCC(=O)N[C@@H](CCC(=O)NCCCC[C@H](NC(=O)CC[C@H](NC(=O)CC[C@H](NC(=O)CC[C@H](NC(=O)COCCOCCNC(=O)COCCOCCNC(=O)COCCOCCNC(=O)COCCOCCNC(=O)[C@H](CCCCNC(C)=O)NC(=O)[C@H](CCCCN)NC(=O)[C@H](CCCNC(=N)N)NC(=O)[C@](C)(CCCCN)NC(=O)[C@H](CO)NC(=O)[C@H](Cc1c[nH]c2ccccc12)NC(=O)[C@@H](NC(=O)[C@H](CO)NC(=O)[C@H](CCCC)NC(=O)CNC(=O)[C@H](CCC(=O)O)NC(=O)C(C)(C)NC(=O)C(C)(C)NC(=O)[C@@H](NC(=O)[C@H](CCCCNC(C)=O)NC(=O)[C@H](C)NC(=O)[C@H](CCCNC(=N)N)NC(=O)[C@@H](NC(=O)[C@H](CCCCN)NC(=O)[C@H](CCC(=O)O)NC(=O)[C@H](CCCNC(=N)N)NC(=O)CNC(=O)[C@H](CCC(=O)O)NC(=O)[C@H](CC(C)C)NC(C)=O)C(C)C)[C@@H](C)CC)[C@@H](C)O)C(=O)O)C(=O)O)C(=O)O)C(N)=O)C(=O)O [compound 136] (Ac-LEGREKVRAK(Ac)I[Aib][Aib]EG[Nle]STWS[αMeK]RKK(Ac)[AEEA][AEEA][AEEA][AEEA][γGlu][γGlu][γGlu]K([γGlu-Palmitoyl])-NH2)	0.03	92	3000	2.9	1870	8	86
CCCCCCCCCCCCCCCC(=O)N[C@@H](CCC(=O)NCCCC[C@H](NC(=O)CC[C@H](NC(=O)CC[C@H](NC(=O)CC[C@H](NC(=O)COCCOCCNC(=O)COCCOCCNC(=O)COCCOCCNC(=O)COCCOCCNC(=O)[C@H](CCCCNC(C)=O)NC(=O)[C@H](CCCCN)NC(=O)[C@H](CCCNC(=N)N)NC(=O)[C@](C)(CCCCN)NC(=O)[C@H](CO)NC(=O)[C@H](Cc1ccccc1)NC(=O)[C@@H](NC(=O)[C@H](CO)NC(=O)[C@H](CCCC)NC(=O)CNC(=O)[C@H](CCC(=O)O)NC(=O)C(C)(C)NC(=O)C(C)(C)NC(=O)[C@@H](NC(=O)[C@H](CCCCNC(C)=O)NC(=O)[C@H](C)NC(=O)[C@H](CCCNC(=N)N)NC(=O)[C@@H](NC(=O)[C@H](CCCCN)NC(=O)[C@H](CCC(=O)O)NC(=O)[C@H](CCCNC(=N)N)NC(=O)CNC(=O)[C@H](CCC(=O)O)NC(=O)[C@H](CC(C)C)NC(C)=O)C(C)C)[C@@H](C)CC)[C@@H](C)O)C(=O)O)C(=O)O)C(=O)O)C(N)=O)C(=O)O [compound 145] (Ac-LEGREKVRAK(Ac)I[Aib][Aib]EG[Nle]STFS[αMeK]RKK(Ac)[AEEA][AEEA][AEEA][AEEA][γGlu][γGlu][γGlu]K([γGlu-Palmitoyl])-NH2)	0.4	99	3440	5.4	1670	8	70

Next, values leading:

EC50 [1] [nM]	Emax [1] [%]	C0 [2] [nM]	half-life [2] [h]	Cmax [2] [nM]	Tmax [2] [h]	bioavailability [2] [%]	SMILES
0.11	87	3330	4.33	2500	6	128	CCCCCCCCCCCCCCCC(=O)N[C@@H](CCC(=O)NCCCC[C@H](NC(=O)CC[C@H](NC(=O)CC[C@H](NC(=O)CC[C@H](NC(=O)COCCOCCNC(=O)COCCOCCNC(=O)COCCOCCNC(=O)COCCOCCNC(=O)[C@H](CCCCNC(C)=O)NC(=O)[C@H](C)NC(=O)[C@H](CCCNC(=N)N)NC(=O)[C@](C)(CCCCN)NC(=O)[C@H](CO)NC(=O)[C@H](Cc1ccccc1)NC(=O)[C@@H](NC(=O)[C@H](CO)NC(=O)[C@H](CCCC)NC(=O)CNC(=O)[C@H](CCC(=O)O)NC(=O)C(C)(C)NC(=O)C(C)(C)NC(=O)[C@@H](NC(=O)[C@H](CCCCNC(C)=O)NC(=O)[C@H](C)NC(=O)[C@H](CCCNC(=N)N)NC(=O)[C@@H](NC(=O)[C@H](CCCCN)NC(=O)[C@H](CCC(=O)O)NC(=O)[C@H](CCCNC(=N)N)NC(=O)CNC(=O)[C@H](CCC(=O)O)NC(=O)[C@H](CC(C)C)NC(C)=O)C(C)C)[C@@H](C)CC)[C@@H](C)O)C(=O)O)C(=O)O)C(=O)O)C(N)=O)C(=O)O [compound 149] (Ac-LEGREKVRAK(Ac)I[Aib][Aib]EG[Nle]STFS[αMeK]RAK(Ac)[AEEA][AEEA][AEEA][AEEA][γGlu][γGlu][γGlu]K([γGlu-Palmitoyl])-NH2)
0.02	89	4350	6.69	1510	8	59	CCCCCCCCCCCCCCCC(=O)N[C@@H](CCC(=O)NCCCC[C@H](NC(=O)CC[C@H](NC(=O)CC[C@H](NC(=O)CC[C@H](NC(=O)CCC(=O)NCCCOCCOCCOCCCNC(=O)CCC(=O)NCCCOCCOCCOCCCNC(=O)[C@H](CCCCNC(C)=O)NC(=O)[C@H](C)NC(=O)[C@H](CCCNC(=N)N)NC(=O)[C@](C)(CCCCN)NC(=O)[C@H](CO)NC(=O)[C@H](Cc1ccccc1)NC(=O)[C@@H](NC(=O)[C@H](CO)NC(=O)[C@H](CCCC)NC(=O)CNC(=O)[C@H](CCC(=O)O)NC(=O)C(C)(C)NC(=O)C(C)(C)NC(=O)[C@@H](NC(=O)[C@H](CCCCNC(C)=O)NC(=O)[C@H](C)NC(=O)[C@H](CCCNC(=N)N)NC(=O)[C@@H](NC(=O)[C@H](CCCCN)NC(=O)[C@H](CCC(=O)O)NC(=O)[C@H](CCCNC(=N)N)NC(=O)CNC(=O)[C@H](CCC(=O)O)NC(=O)[C@H](CC(C)C)NC(C)=O)C(C)C)[C@@H](C)CC)[C@@H](C)O)C(=O)O)C(=O)O)C(=O)O)C(N)=O)C(=O)O [compound 157] (Ac-LEGREKVRAK(Ac)I[Aib][Aib]EG[Nle]STFS[αMeK]RAK(Ac)-X5)
